The text below walks through data of publication PMC5107956 (2016).

Holding throughout (assay): fluorescent intercalator displacement (thiazole orange)
Common to all, as to details: 50 mM KCl, 10 mM potassium cacodylate (60 mM K+); pH 7.4, room temperature; thiazole orange 0.625 μM displaced; DNA 0.25 μM; DMSO stocks

The test system of experiment [1] is HTelo (DNA, G4) AGGGTTAGGGTTAGGGTTAGGG
In experiment [2] the test system is KRAS m(1:5:1) (DNA, G4) GGGAGGGAAGGAGGGAGGG
Experiment [3] relates to VEGF (VEGF22) (DNA, G4) CGGGGCGGGCCGGGGGCGGGGT
The test system of experiment [4] is c-Kit (c-Kit21) (DNA, G4) CGGGCGGGCGCGAGGGAGGGG
The subject of experiment [5] is KRAS m(1:9:1) (DNA, G4) GGGAGGGAAGGAGGGAGGGAGGG
The subject of experiment [6] is hTERT (DNA, G4) GGGGAGGGGCTGGGAGGGCCC
The test system of experiment [7] is HIF1α (HIF1) (DNA, G4) CGGGGAGGGGAGAGGGGGCGGGA
In experiment [8] the test system is c-Myc (DNA, G4) GGGAGGGTGGGGAGGGTGGG
Experiment [9] has as its system ds26 (DNA, duplex) CAATCGGATCGAATTCGATCCGATTG

With `O=C(N/N=C/c1ccc(O)cc1[O-])N(Cc1ccccc1)Cc1ccccc1.[Cu+2].c1ccncc1`, the DC50 in experiment [1] is given as 1.01 (0.03) μM; in [2] it was 2.28 (0.10) μM; in experiment [3] it was 11.58 (0.41) μM; in experiment [4], 3.58 (0.28) μM; in [5], 2.35 (0.09) μM; in experiment [6] it was 10.51 (0.61) μM. Further, the DC50 in experiment [7] is listed as 10.20 (0.54) μM; in experiment [8] it was 7.15 (0.17) μM; in experiment [9] it was 9.91 (0.55) μM.
